Experimental data taken from patent US20210254056A1, “IDENTIFICATION AND TARGETED MODULATION OF GENE SIGNALING NETWORKS” (CAMP4 THERAPEUTICS CORPORATION, priority 2017, published 2021).

Tested on: hepatocytes
Assay: RNA-seq of hepatocytes treated with Phase III failure compounds
Settings: hepatocytes
Protocol: RNA-seq was performed to determine the effects of the compounds on hepatocytes.
Significance was determined by the criteria of FPKM≥0.5, a log 2(fold-change)≥1, and a […].

For `CCC(CC)[C@H](NC(C)=O)[C@@H]1[C@H](O)[C@@H](C(=O)O)C[C@H]1NC(=N)N.O.O.O` [peramivir (trihydrate), peramivir], the “RNA-seq results: SLC33A1” value (gene SLC33A1) was −0.02, the “RNA-seq results, SLC35C1” value (gene SLC35C1) was 0.17 and the “RNA-seq results: SLC35C1” value (gene SLC35C1) was 0.07. For the same compound, the “RNA-seq results, SLC39A4” value (gene SLC39A4) was 0.31, the “RNA-seq results: SLC39A4” value (gene SLC39A4) was 0.32 and the “RNA-seq results, SLC40A1” value (gene SLC40A1) was 0.39. The “RNA-seq results: SLC40A1” value (gene SLC40A1) was −0.18, the “RNA-seq results, SLC46A1” value (gene SLC46A1) was 0.08 and the “RNA-seq results: SLC46A1” value (gene SLC46A1) was 0.17. The “RNA-seq results, SLC51A” value (gene SLC51A) was 0.08, the “RNA-seq results: SLC51A” value (gene SLC51A) was −0.03 and the “RNA-seq results, SLC51B” value (gene SLC51B) was 0.29. For the same compound, the “RNA-seq results: SLC51B” value (gene SLC51B) was 0.08, the “RNA-seq results, SLCO1B1” value (gene SLCO1B1) was −0.33 and the “RNA-seq results: SLCO1B1” value (gene SLCO1B1) was −0.23. For the same compound, the “RNA-seq results, SLCO4C1” value (gene SLCO4C1) was −0.39, the “RNA-seq results: SLCO4C1” value (gene SLCO4C1) was −0.05 and the “RNA-seq results, SMAD4” value (gene SMAD4) was −0.2. For the same compound, the “RNA-seq results: SMAD4” value (gene SMAD4) was −0.17, the “RNA-seq results, SMARCB1” value (gene SMARCB1) was 0.11 and the “RNA-seq results: SMARCB1” value (gene SMARCB1) was −0.19. For the same compound, the “RNA-seq results, SNX10” value (gene SNX10) was −0.36, the “RNA-seq results: SNX10” value (gene SNX10) was −0.57 and the “RNA-seq results, SORT1” value (gene SORT1) was −0.15. For the same compound, the “RNA-seq results: SORT1” value (gene SORT1) was −0.12, the “RNA-seq results, SPP2” value (gene SPP2) was −0.12 and the “RNA-seq results: SPP2” value (gene SPP2) was −0.17. For the same compound, the “RNA-seq results, SPRTN” value (gene SPRTN) was −0.17, the “RNA-seq results: SPRTN” value (gene SPRTN) was −0.18 and the “RNA-seq results, ST3GAL5” value (gene ST3GAL5) was −0.19. For the same compound, the “RNA-seq results: ST3GAL5” value (gene ST3GAL5) was −0.11, the “RNA-seq results, STAT1” value (gene STAT1) was −0.31 and the “RNA-seq results: STAT1” value (gene STAT1) was −0.45. For the same compound, the “RNA-seq results, STEAP3” value (gene STEAP3) was 0.03, the “RNA-seq results: STEAP3” value (gene STEAP3) was 0.03 and the “RNA-seq results, STIM1” value (gene STIM1) was 0.1. The “RNA-seq results: STIM1” value (gene STIM1) was −0.07, the “RNA-seq results, SULT2A1” value (gene SULT2A1) was 0.65 and the “RNA-seq results: SULT2A1” value (gene SULT2A1) was −0.07. The “RNA-seq results, SUOX” value (gene SUOX) was −0.18, the “RNA-seq results: SUOX” value (gene SUOX) was −0.01 and the “RNA-seq results, TARS2” value (gene TARS2) was 0.2. The “RNA-seq results: TARS2” value (gene TARS2) was −0.08, the “RNA-seq results, TAT” value (gene TAT) was −0.56 and the “RNA-seq results: TAT” value (gene TAT) was 0.16. The “RNA-seq results, TCIRG1” value (gene TCIRG1) was 0.29, the “RNA-seq results: TCIRG1” value (gene TCIRG1) was 0.39 and the “RNA-seq results, TCTN3” value (gene TCTN3) was −0.04. The “RNA-seq results: TCTN3” value (gene TCTN3) was −0.34, the “RNA-seq results, TDO2” value (gene TDO2) was −0.58 and the “RNA-seq results: TDO2” value (gene TDO2) was −0.14. The “RNA-seq results, TF” value (gene TF) was 0.02, the “RNA-seq results: TF” value (gene TF) was −0.09 and the “RNA-seq results, TFR2” value (gene TFR2) was 0.21. The “RNA-seq results: TFR2” value (gene TFR2) was 0.07, the “RNA-seq results, TGFB1” value (gene TGFB1) was −0.25 and the “RNA-seq results: TGFB1” value (gene TGFB1) was −0.16. The “RNA-seq results, THPO” value (gene THPO) was −0.03, the “RNA-seq results: THPO” value (gene THPO) was 0.03 and the “RNA-seq results, THRB” value (gene THRB) was −0.28. For the same compound, the “RNA-seq results: THRB” value (gene THRB) was −0.18, the “RNA-seq results, TK2” value (gene TK2) was 0.12 and the “RNA-seq results: TK2” value (gene TK2) was 0.15. The “RNA-seq results, TMEM67” value (gene TMEM67) was −0.01, the “RNA-seq results: TMEM67” value (gene TMEM67) was 0.04 and the “RNA-seq results, TMEM135” value (gene TMEM135) was −0.13. The “RNA-seq results: TMEM135” value (gene TMEM135) was −0.41, the “RNA-seq results, TMEM165” value (gene TMEM165) was −0.14 and the “RNA-seq results: TMEM165” value (gene TMEM165) was −0.17. For the same compound, the “RNA-seq results, TMLHE” value (gene TMLHE) was −0.03, the “RNA-seq results: TMLHE” value (gene TMLHE) was −0.50 and the “RNA-seq results, TMPRSS6” value (gene TMPRSS6) was 0.1. The “RNA-seq results: TMPRSS6” value (gene TMPRSS6) was 0.34, the “RNA-seq results, TNFRSF1A” value (gene TNFRSF1A) was 0.25 and the “RNA-seq results: TNFRSF1A” value (gene TNFRSF1A) was −0.13. The “RNA-seq results, TNFSF11” value (gene TNFSF11) was −0.54, the “RNA-seq results: TNFSF11” value (gene TNFSF11) was −0.28 and the “RNA-seq results, TP53” value (gene TP53) was −0.02. For the same compound, the “RNA-seq results: TP53” value (gene TP53) was 0.04, the “RNA-seq results, TTC21B” value (gene TTC21B) was −0.14 and the “RNA-seq results: TTC21B” value (gene TTC21B) was −0.28. The “RNA-seq results, TTPA” value (gene TTPA) was −0.46, the “RNA-seq results: TTPA” value (gene TTPA) was −0.20 and the “RNA-seq results, TTR” value (gene TTR) was 0.19. For the same compound, the “RNA-seq results: TTR” value (gene TTR) was −0.23, the “RNA-seq results, TYMP” value (gene TYMP) was 0.37 and the “RNA-seq results: TYMP” value (gene TYMP) was 0.37. For the same compound, the “RNA-seq results, UBR1” value (gene UBR1) was −0.38, the “RNA-seq results: UBR1” value (gene UBR1) was −0.15 and the “RNA-seq results, UGT1A1” value (gene UGT1A1) was −0.06. The “RNA-seq results: UGT1A1” value (gene UGT1A1) was −0.38, the “RNA-seq results, UGT2B28” value (gene UGT2B28) was 0.09 and the “RNA-seq results: UGT2B28” value (gene UGT2B28) was 0.41. For the same compound, the “RNA-seq results, UNC13D” value (gene UNC13D) was 0.05, the “RNA-seq results: UNC13D” value (gene UNC13D) was 0.44 and the “RNA-seq results, UPB1” value (gene UPB1) was 0.33. For the same compound, the “RNA-seq results: UPB1” value (gene UPB1) was 0.19, the “RNA-seq results, UQCRB” value (gene UQCRB) was 0.17 and the “RNA-seq results: UQCRB” value (gene UQCRB) was −0.18. For the same compound, the “RNA-seq results, UROC1” value (gene UROC1) was −0.25, the “RNA-seq results: UROC1” value (gene UROC1) was −0.26 and the “RNA-seq results, UTRN” value (gene UTRN) was −0.35. The “RNA-seq results: UTRN” value (gene UTRN) was −0.06, the “RNA-seq results, VIPAS39” value (gene VIPAS39) was 0.05 and the “RNA-seq results: VIPAS39” value (gene VIPAS39) was −0.08. The “RNA-seq results, VLDLR” value (gene VLDLR) was 0.62, the “RNA-seq results: VLDLR” value (gene VLDLR) was −0.30 and the “RNA-seq results, VPS13A” value (gene VPS13A) was −0.28. For the same compound, the “RNA-seq results: VPS13A” value (gene VPS13A) was 0.08, the “RNA-seq results, VPS33B” value (gene VPS33B) was 0.18 and the “RNA-seq results: VPS33B” value (gene VPS33B) was 0.13. For the same compound, the “RNA-seq results, WAS” value (gene WAS) was 0.19, the “RNA-seq results: WAS” value (gene WAS) was 0.03 and the “RNA-seq results, WDR35” value (gene WDR35) was −0.19. The “RNA-seq results: WDR35” value (gene WDR35) was −0.03, the “RNA-seq results, XDH” value (gene XDH) was 0.28 and the “RNA-seq results: XDH” value (gene XDH) was 0.17. For the same compound, the “RNA-seq results, YARS2” value (gene YARS2) was 0 and the “YARS2 expression, RNA-seq result” value (gene YARS2) was −0.36.
